{"source": "patent US9675563B2", "about": "“Method for adjunctive treatment of cancer metastasis by using lycogen” (ASIA-PACIFIC BIOTECH DEVELOPING, INC., priority 2015, dated 2017)", "type_in_all_cases": "cell-based, human", "key": {"[1]": {"system": "HUVEC cells", "test": "In vitro angiogenesis assay (H2O2-induced tubeformation in matrigel)", "conditions": "5-FU alone, 6 hours after treatment", "experimental": "(§1) The in vitro angiogenesis assay was a model test used for studying anti-angiogenic nutrient or drugs, and the assay was highly convenient and fast. […] H2O2 was used to induce tubeformation in matrigel to evaluate the effect of Lycogen on the index of angiogenesis. HUVEC cells were dissolved in 10% serum-containing culture media, and then HUVEC cells were seeded into matrigel pre-coated 24-well plates in a density of […] per well. Except for the control group HUVEC cells in all other groups were treated with solvent vehicle, 5-FU, 5-FU plus 10 μM Lycogen, 5-FU plus 30 μM Lycogen, and 5-FU plus 50 μM of Lycogen, respectively. Each assay under the same experimental condition was performed in duplicate and this experiment was repeated twice. Phase contrast photomicrographs were taken by a phase contrast microscope with 100× magnification at 6 hours after the treatment."}, "[2]": {"system": "HUVEC cells", "test": "Cell migration analysis under the angiogenesis assay conditions", "conditions": "5-FU alone", "experimental": "as §1\nIn another example, the effect of Lycogen on cell migration was analyzed under the same conditions of the aforementioned angiogenesis analysis."}, "[3]": {"system": "EA.hy926 cell line", "test": "EA.hy926 cell migration analysis (migration areas)", "conditions": "25 μg/mL 5-FU, 24 hours", "experimental": "In another example, the effect of Lycogen on cell migration in human umbilical vein endothelial cell line (EA.hy926 cell line) was analyzed. The cell line was treated with different concentrations of Lycogen (0, 2, 5, and 10 μM) or 25 μg/mL 5-FU, and the EA.hy926 cell migration was analyzed 24 hours after treatments to calculate the migration areas."}, "[4]": {"system": "EA.hy926 cell line", "test": "Cancer cell invasion assay (Matrigel, fluorescent microscope)", "conditions": "25 μg/mL 5-FU, 24 hours, compared to 0 μg/ml group", "experimental": "In one embodiment, the EA.hy926 cell line was used to analyze the ability of Lycogen on inhibiting cancer cell invasion. EA.hy926 cell line was treated with various concentration of Lycogen (0, 2, 5, and 10 μM) or 25 μg/mL 5-FU. Twenty-four hours after treatment, the Matrigel was used to analyze the cell invasion, and fluorescent microscope was used to observe the cancer cell invasion.\nCells were cultured on the plate, which was covered by a semipermeable membrane, to mimic the condition of cell invasion in vivo. The basal membrane was interrupted in invasive tumor cell to invade adjacent tissue. The cell culture plate was scratched by a sterile tip or cotton thread to create an acellular space. The cell lines were treated with different treatments, and then the cell number inside the membrane was counted."}}, "data": [{"smiles": "O=c1[nH]cc(F)c(=O)[nH]1", "note": "[5-FU]", "values": [{"measurement": "cell tubeformation", "setting": "[1]", "value": "did inhibit"}, {"measurement": "cell migration", "setting": "[2]", "value": "did inhibit"}, {"measurement": "cancer cell migration (migration areas)", "setting": "[3]", "value": "had the ability of inhibiting cancer cell migration"}, {"measurement": "invaded cell number", "setting": "[4]", "value": "significantly decreased"}]}]}
